Data from ChEMBL document CHEMBL1130359, “In vivo immunosuppressive activity of some cyclolignans” (Bioorg Med Chem Lett, 1997).
Converted amounts (≈) assume the structure as drawn.

How the values were obtained:
[1] = Non-cytotoxic IMS activity (ratio LcV/MLR) was determined; format: functional
[2] = system: Mus musculus; assay: Tested in vivo for immunosuppressive activity in mouse using allogenic skin grafting technique(SG); weight at a dose of 1.5 mg/kg; format: functional
[3] = system: Mus musculus; assay: Tested in vivo for immunosuppressive activity in mouse using graft vs Host rejection technique(GVHR); spleen weight normalized to D8 body weight at a dose of 15.0 mg/kg; format: functional
[4] = system: Mus musculus; assay: Tested in vivo for immunosuppressive activity in mouse using allogenic skin grafting technique(SG); weight lost at a dose of 0.15 mg/kg; format: functional
[5] = system: Mus musculus; assay: Tested in vivo for immunosuppressive activity in mouse using graft vs Host rejection technique(GVHR); weight at a dose of 15 mg/kg; format: functional
[6] = system: Mus musculus; assay: Tested in vivo for immunosuppressive activity in mouse using graft vs Host rejection technique(GVHR); weight change at a dose of 1.5 mg/kg on day 5; format: functional
[7] = Tested in vitro for cytotoxicity against […](LcV) in cells; format: functional
[8] = system: Mus musculus; assay: Tested in vivo for immunosuppressive activity in mouse using allogenic skin grafting technique(SG); weight lost at a dose of 1.5 mg/kg on day 5; format: functional
[9] = system: Mus musculus; assay: Tested in vivo for immunosuppressive activity in mouse using graft vs Host rejection technique(GVHR); % suppression at a dose of 15.0 mg/kg; format: functional
[10] = system: Mus musculus; assay: Tested in vivo for immunosuppressive activity in mouse using graft vs Host rejection technique(GVHR); body weight at a dose of 0.15 mg/kg; format: functional
[11] = system: Mus musculus; assay: Tested in vivo for immunosuppressive activity in mouse using graft vs Host rejection technique(GVHR); spleen index at a dose of 15.0 mg/kg; format: functional
[12] = system: Mus musculus; assay: Tested in vivo for immunosuppressive activity in mouse using graft vs Host rejection technique(GVHR); body weight at a dose of 15.0 mg/kg; format: functional
[13] = system: Mus musculus; assay: Tested in vivo for immunosuppressive activity in mouse using graft vs Host rejection technique(GVHR); spleen index at a dose of 0.15 mg/kg; format: functional
[14] = system: Mus musculus; assay: Tested in vivo for immunosuppressive activity in mouse using graft vs Host rejection technique(GVHR); spleen index at a dose of 1.5 mg/kg; format: functional
[15] = system: Mus musculus; assay: Tested in vivo for immunosuppressive activity in mouse using allogenic skin grafting technique(SG); mean graft survival at a dose of 15 mg/kg; format: functional
[16] = system: Mus musculus; assay: Tested in vivo for immunosuppressive activity in mouse using graft vs Host rejection technique(GVHR); body weight at a dose of 1.5 mg/kg; format: functional
[17] = system: Mus musculus; assay: Tested in vivo for immunosuppressive activity in mouse using allogenic skin grafting technique(SG); graft survival relative to cyclophosphamide at a dose of 0.15 mg/kg; format: functional
[18] = system: Mus musculus; assay: Tested in vivo for immunosuppressive activity in mouse using graft vs Host rejection technique(GVHR); spleen weight normalized to D8 body weight at a dose of 1.5 mg/kg; format: functional
[19] = system: Mus musculus; assay: Tested in vivo for immunosuppressive activity in mouse using allogenic skin grafting technique(SG); mean graft survival at a dose of 1.5 mg/kg; format: functional
[20] = system: Mus musculus; assay: Tested in vivo for immunosuppressive activity in mouse using allogenic skin grafting technique(SG); graft survival relative to cyclophosphamide at a dose of 1.5 mg/kg; format: functional
[21] = system: Mus musculus; assay: Tested in vivo for immunosuppressive activity in mouse using graft vs Host rejection technique(GVHR); spleen weight normalized to D8 body weight at a dose of 0.15 mg/kg; format: functional
[22] = organism: Mus musculus; assay: Tested for immunosuppressive activity in mouse using allogenic MLR method; format: functional, organism-based
[23] = system: Mus musculus; assay: Tested in vivo for immunosuppressive activity in mouse using graft vs Host rejection technique(GVHR); weight change at a dose of 15.0 mg/kg on day 5; format: functional
[24] = system: Mus musculus; assay: Tested in vivo for immunosuppressive activity in mouse using graft vs Host rejection technique(GVHR); weight change at a dose of 0.15 mg/kg on day 5; format: functional
[25] = system: Mus musculus; assay: Tested in vivo for immunosuppressive activity in mouse using allogenic skin grafting technique(SG); mean graft survival at a dose of 0.15 mg/kg; format: functional
[26] = system: Mus musculus; assay: Tested in vivo for immunosuppressive activity in mouse using allogenic skin grafting technique(SG); weight at a dose of 0.15 mg/kg; format: functional
[27] = system: Mus musculus; assay: Tested in vivo for immunosuppressive activity in mouse using graft vs Host rejection technique(GVHR);% suppression at a dose of 1.5 mg/kg; format: functional
[28] = system: Mus musculus; assay: Tested in vivo for immunosuppressive activity in mouse using graft vs. Host rejection technique(GVHR); weight change at a dose of 0.15 mg/kg; format: functional
[29] = system: Mus musculus; assay: Tested in vivo for immunosuppressive activity in mouse using graft vs. Host rejection technique(GVHR); spleen weight normalized to D8 body weight at a dose of 0.15 mg/kg; format: functional
[30] = system: Mus musculus; assay: Tested in vivo for immunosuppressive activity in mouse using allogenic skin grafting technique(SG); weight at a dose of 15 mg/kg; format: functional
[31] = system: Mus musculus; assay: Tested in vivo for immunosuppressive activity in mouse using graft vs. Host rejection technique(GVHR); % suppression at a dose of 15 mg/kg; format: functional
[32] = system: Mus musculus; assay: Tested in vivo for immunosuppressive activity in mouse using graft vs. Host rejection technique(GVHR); % suppression at a dose of 0.15 mg/kg; format: functional
[33] = system: Mus musculus; assay: Tested in vivo for immunosuppressive activity in mouse using graft vs. Host rejection technique(GVHR); % suppression at a dose of 15.0 mg/kg; format: functional
[34] = system: Mus musculus; assay: Tested in vivo for immunosuppressive activity in mouse using graft vs. Host rejection technique(GVHR); spleen index at a dose of 1.5 mg/kg; format: functional
[35] = system: Mus musculus; assay: Tested in vivo for immunosuppressive activity in mouse using graft vs. Host rejection technique(GVHR); body weight at a dose of 0.15 mg/kg; format: functional
[36] = system: Mus musculus; assay: Tested in vivo for immunosuppressive activity in mouse using graft vs. Host rejection technique(GVHR); spleen index at a dose of 15.0 mg/kg; format: functional
[37] = system: Mus musculus; assay: Tested in vivo for immunosuppressive activity in mouse using graft vs. Host rejection technique(GVHR); spleen weight normalized to D8 body weight at a dose of 1.5 mg/kg; format: functional
[38] = system: Mus musculus; assay: Tested in vivo for immunosuppressive activity in mouse using allogenic skin grafting technique(SG); mean graft survival at a dose of 15.0 mg/kg; format: functional
[39] = system: Mus musculus; assay: Tested in vivo for immunosuppressive activity in mouse using graft vs. Host rejection technique(GVHR); body weight at a dose of 15.0 mg/kg; format: functional
[40] = system: Mus musculus; assay: Tested in vivo for immunosuppressive activity in mouse using graft vs. Host rejection technique(GVHR); % suppression at a dose of 1.5 mg/kg; format: functional
[41] = system: Mus musculus; assay: Tested in vivo for immunosuppressive activity in mouse using allogenic skin grafting technique(SG); weight lost at a dose of 1.5 mg/kg; format: functional
[42] = system: Mus musculus; assay: Tested in vivo for immunosuppressive activity in mouse using graft vs. Host rejection technique(GVHR); weight change at a dose of 1.5 mg/kg; format: functional
[43] = system: Mus musculus; assay: Tested in vivo for immunosuppressive activity in mouse using graft vs. Host rejection technique(GVHR); body weight at a dose of 1.5 mg/kg; format: functional
[44] = system: Mus musculus; assay: Tested in vivo for immunosuppressive activity in mouse using allogenic skin grafting technique(SG); graft survival relative to cyclophosphamide at a dose of 15.0 mg/kg; format: functional
[45] = system: Mus musculus; assay: Tested in vivo for immunosuppressive activity in mouse using graft vs. Host rejection technique(GVHR); weight change at a dose of 15.0 mg/kg; format: functional
[46] = system: Mus musculus; assay: Tested in vivo for immunosuppressive activity in mouse using graft vs. Host rejection technique(GVHR); spleen weight normalized to D8 body weight at a dose of 15.0 mg/kg; format: functional
[47] = system: Mus musculus; assay: Tested in vivo for immunosuppressive activity in mouse using graft vs. Host rejection technique(GVHR); spleen index at a dose of 0.15 mg/kg; format: functional
[48] = system: Mus musculus; assay: Tested in vivo for immunosuppressive activity in mouse using allogenic skin grafting technique(SG); graft survival relative to cyclophosphamide at a dose of 25.0 mg/kg; format: functional
[49] = system: Mus musculus; assay: Tested in vivo for immunosuppressive activity in mouse using graft vs. Host rejection technique(GVHR); weight change at a dose of 25.0 mg/kg; format: functional
[50] = system: Mus musculus; assay: Tested in vivo for immunosuppressive activity in mouse using allogenic skin grafting technique(SG); mean graft survival at a dose of 25.0 mg/kg; format: functional

SMILES: COc1cc([C@@H]2c3cc4c(cc3C3=NOC[C@H]3[C@@H]2C(=O)O)OCO4)cc(OC)c1OC
- Ratio [1]: >3333
- Body weight [2]: 18.7 g
- Spleen weight [3]: 6.34 g
- Body weight [4]: 0.5 g
- Body weight [5]: 17.8 g
- Weight change [6]: 0%
- Cytotoxicity [7]: >30 µg/mL
- Body weight [8]: 1.7 g
- Activity [9]: 148%
- Body weight [10]: 15.8 g
- SI [11]: 1.27
- Body weight [12]: 16.5 g
- SI [13]: 1.14
- SI [14]: 0.87
- Mean graft survival [15]: 0.9 days
- Body weight [16]: 16 g
- graft survival [17]: 1.14 days
- Spleen weight [18]: 4.35 g
- Mean graft survival [19]: 6.8 days
- graft survival [20]: 0.69 days
- Spleen weight [21]: 5.7 g
- IC50 [22]: < 9 ng/mL
- Weight change [23]: 1.8%
- Weight change [24]: 3.1%
- Mean graft survival [25]: 11.2 days
- Body weight [26]: 19 g
- Activity [27]: 48%

SMILES: COc1cc([C@H]2C3=C(COC3=O)Cc3cc(OC(C)=O)c(OC(C)=O)cc32)cc(OC)c1OC
- Ratio [1]: >78
- Cytotoxicity [7]: >28.5 µg/mL
- IC50 [22]: 366 ng/mL (≈ 781 nM)

SMILES: COc1cc([C@@H]2c3cc(O)c(O)cc3C[C@H]3COC(=O)[C@@H]32)cc(OC)c1OC
- Ratio [1]: >43
- Cytotoxicity [7]: >25 µg/mL
- IC50 [22]: 585 ng/mL (≈ 1510 nM)

SMILES: COc1cc([C@@H]2c3cc(O)c(O)cc3[C@@H](O)[C@H]3COC(=O)[C@H]23)cc(OC)c1OC
- Ratio [1]: >23333333
- Body weight [2]: 18.5 g
- Weight change [28]: 0%
- Spleen weight [29]: 4.05 g
- Body weight [30]: 0.2 g
- Body weight [31]: 18.2 g
- Activity [32]: 170%
- Body weight [4]: 0.6 g
- Activity [33]: 100%
- SI [34]: 0.88
- Cytotoxicity [7]: >35 µg/mL
- Body weight [35]: 17 g
- SI [36]: 1
- Spleen weight [37]: 4.4 g
- Mean graft survival [38]: 9.7 days
- Body weight [39]: 16.3 g
- Activity [40]: 144%
- Body weight [41]: 1 g
- Weight change [42]: 1.9%
- graft survival [17]: 1.12 days
- Body weight [43]: 15.8 g
- graft survival [44]: 0.99 days
- Mean graft survival [19]: 11 days
- graft survival [20]: 1.12 days
- IC50 [22]: 0.015 ng/mL (≈ 0.0373 nM)
- Weight change [45]: -3%
- Mean graft survival [25]: 11 days
- Body weight [26]: 18.3 g
- Spleen weight [46]: 5.02 g
- SI [47]: 0.81

SMILES: COc1cc([C@H]2C3=C(COC3=O)Cc3cc4c(cc32)OCO4)cc(OC)c1OC
- Ratio [1]: >3333
- Cytotoxicity [7]: >28.5 µg/mL
- IC50 [22]: < 8.55 ng/mL

SMILES: COc1cc([C@@H]2c3cc(OC(C)=O)c(OC(C)=O)cc3[C@H](OC(C)=O)[C@H]3COC(=O)[C@H]23)cc(OC)c1OC
- Ratio [1]: >428
- Cytotoxicity [7]: >26 µg/mL
- IC50 [22]: 60.7 ng/mL (≈ 115 nM)

SMILES: COc1cc([C@@H]2c3cc(OC(C)=O)c(OC(C)=O)cc3[C@@H](OC(C)=O)[C@H]3COC(=O)[C@H]23)cc(OC)c1OC
- Ratio [1]: >67
- Cytotoxicity [7]: >28.5 µg/mL
- IC50 [22]: 427 ng/mL (≈ 808 nM)

SMILES: C/C=C/C[C@@H](C)[C@@H](O)[C@H]1C(=O)N[C@@H](CC)C(=O)N(C)CC(=O)N(C)[C@@H](CC(C)C)C(=O)N[C@@H](C(C)C)C(=O)N(C)[C@@H](CC(C)C)C(=O)N[C@@H](C)C(=O)N[C@H](C)C(=O)N(C)[C@@H](CC(C)C)C(=O)N(C)[C@@H](CC(C)C)C(=O)N(C)[C@@H](C(C)C)C(=O)N1C [CYCLOSPORINE]
- graft survival [48]: 1 days
- Weight change [49]: 2.7%
- Mean graft survival [50]: 9.8 days

SMILES: COc1cc([C@@H]2c3cc4c(cc3[C@@H](O)[C@H]3COC(=O)[C@H]23)OCO4)cc(OC)c1OC [EPIPODOPHYLLOTOXIN]
- Ratio [1]: >284
- Cytotoxicity [7]: >65 µg/mL
- IC50 [22]: 229 ng/mL (≈ 553 nM)

SMILES: COc1cc([C@@H]2c3cc4c(cc3[C@H](O)[C@H]3COC(=O)[C@H]23)OCO4)cc(OC)c1OC [PODOFILOX]
- Ratio [1]: >2187
- Cytotoxicity [7]: 280 µg/mL
- IC50 [22]: < 128 ng/mL
